Laboratory results published in PMC10331583, “Control of fibrosis with enhanced safety via asymmetric inhibition of prolyl‐tRNA synthetase 1” (EMBO Molecular Medicine, 2023).
Several values for one entry are separate records, joined by “and”; a condition that tells them apart may be missing. Identical values can stand only once.

Tests used:
[1] = tested on: WI‐26 VA4 cells; experiment: Immunoblot of cellular protein levels with different proline content; format: cell-based, human; settings: Fig 2A
Method: The levels of proteins were determined by immunoblot assay. […] The lowest concentration at which protein levels started to decrease was normalized by IC50 values for collagen level and used as the y‐axis value. […] The slope and R^2 value were calculated using GraphPad Prism 7.0. […] The activation of the TGF‐β pathway was determined by monitoring the phosphorylation of SMAD2. Immunoblot images are representative of three biologically independent experiments. • The band intensities of the immunoblot images in (C) were quantified using ImageJ (n = 3; One‐way ANOVA; *P < 0.05, **P < 0.01, ***P < 0.001; mean ± SEM). Source data are available online for this figure.

[2] = target: T1, PARS1 WT (Homo sapiens, UniProt P07814); experiment: Microscale thermophoresis (MST), PARS1 WT; format: binding; settings: for Fraction bound: single replicates
T1 construct: His‐PARS1 (1001–1,512 aa); made in house; host or cells: Escherichia coli
T1 sequence (P07814 1001-1512 limits assumed): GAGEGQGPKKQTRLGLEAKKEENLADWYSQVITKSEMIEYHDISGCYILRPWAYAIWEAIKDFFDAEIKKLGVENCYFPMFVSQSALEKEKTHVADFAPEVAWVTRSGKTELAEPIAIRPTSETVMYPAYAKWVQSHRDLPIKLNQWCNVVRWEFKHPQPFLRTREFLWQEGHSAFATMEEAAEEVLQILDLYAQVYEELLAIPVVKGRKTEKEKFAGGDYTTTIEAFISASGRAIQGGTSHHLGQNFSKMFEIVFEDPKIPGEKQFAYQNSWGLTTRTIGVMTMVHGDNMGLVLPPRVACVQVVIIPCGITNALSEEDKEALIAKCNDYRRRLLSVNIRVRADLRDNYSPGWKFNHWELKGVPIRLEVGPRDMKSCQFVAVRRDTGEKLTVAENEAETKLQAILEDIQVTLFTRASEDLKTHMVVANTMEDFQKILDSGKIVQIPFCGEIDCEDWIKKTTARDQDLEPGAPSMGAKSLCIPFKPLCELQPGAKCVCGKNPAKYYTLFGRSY

[3] = tested on: WI‐26 VA4 cells stably expressing PARS1 FA/EA/RL mutant; experiment: Collagen ELISA in cells stably expressing PARS1 mutant

How did the “effective dose for decreasing general proteins (SMAD2, AIMP2, AMPKα, cyclin D1) compared with COL1A1” value [1] turn out when `O=C(CC1NCCCC1O)Cn1cnc2cc(Br)c(Cl)cc2c1=O` (centres unmarked) [HF, Halofuginone, reference compound] was run?
Its value is “about three times”.

What about the “Fraction bound, average” value ([2]; Dose 3.0518 nM) of the same compound?
The value was -0.0712.

And the Fraction bound ([2]; Dose 3.0518 nM)?
Its Fraction bound is -0.0993 and -0.0066 and -0.1077.

And the “Fraction bound, average” value ([2]; Dose 6.1035 nM)?
The value was -0.0015.

And the Fraction bound ([2]; Dose 6.1035 nM)?
The Fraction bound was 0.0287 and -0.0242 and -0.0091.

And the “Fraction bound, average” value ([2]; Dose 12.207 nM)?
Its value is 0.0765.

What about the Fraction bound ([2]; Dose 12.207 nM) of the same compound?
Its Fraction bound is 0.1266 and 0.0543 and 0.0485.

What about the “Fraction bound, average” value ([2]; Dose 24.4141 nM) of the same compound?
Its value is 0.1050.

And the Fraction bound ([2]; Dose 24.4141 nM)?
The Fraction bound was 0.1952 and 0.1143 and 0.0054.

What about the “Fraction bound, average” value ([2]; Dose 48.8281 nM) of the same compound?
Its value is 0.1434.

And the Fraction bound ([2]; Dose 48.8281 nM)?
The Fraction bound was 0.1825 and 0.1031 and 0.1448.

What about the “Fraction bound, average” value ([2]; Dose 97.6563 nM) of the same compound?
Its value is 0.2466.

What about the Fraction bound ([2]; Dose 97.6563 nM) of the same compound?
Its Fraction bound is 0.2751 and 0.2161 and 0.2485.

What about the “Fraction bound, average” value ([2]; Dose 195.312 nM) of the same compound?
Its value is 0.5229.

What about the Fraction bound ([2]; Dose 195.312 nM) of the same compound?
The Fraction bound was 0.5425 and 0.5488 and 0.4774.

And the “Fraction bound, average” value ([2]; Dose 390.625 nM)?
Its value is 0.7387.

What about the Fraction bound ([2]; Dose 390.625 nM) of the same compound?
Its Fraction bound is 0.7958 and 0.7241 and 0.6962.

And the “Fraction bound, average” value ([2]; Dose 781.25 nM)?
The value was 0.9030.

What about the Fraction bound ([2]; Dose 781.25 nM) of the same compound?
Its Fraction bound is 0.8890 and 0.8991 and 0.9209.

What about the “Fraction bound, average” value ([2]; Dose 1562.5 nM) of the same compound?
The value was 0.9612.

And the Fraction bound ([2]; Dose 1562.5 nM)?
Its Fraction bound is 0.9380 and 1.0072 and 0.9382.

What about the “Fraction bound, average” value ([2]; Dose 3125 nM) of the same compound?
Its value is 0.9287.

What about the Fraction bound ([2]; Dose 3125 nM) of the same compound?
Its Fraction bound is 0.9278 and 0.9164 and 0.9420.

And the “Fraction bound, average” value ([2]; Dose 6250 nM)?
The value was 0.9609.

What about the Fraction bound ([2]; Dose 6250 nM) of the same compound?
The Fraction bound was 0.9251 and 0.9572 and 1.0004.

And the “Fraction bound, average” value ([2]; Dose 12500 nM)?
The value was 0.9979.

What about the Fraction bound ([2]; Dose 12500 nM) of the same compound?
Its Fraction bound is 0.9525 and 1.0119 and 1.0291.

What about the “Fraction bound, average” value ([2]; Dose 25000 nM) of the same compound?
The value was 1.0497.

And the Fraction bound ([2]; Dose 25000 nM)?
The Fraction bound was 1.0026 and 1.0240 and 1.1224.

What about the “Fraction bound, average” value ([2]; Dose 50000 nM) of the same compound?
Its value is 0.9548.

What about the Fraction bound ([2]; Dose 50000 nM) of the same compound?
The Fraction bound was 0.8756 and 0.9971 and 0.9917.

And the “Fraction bound, average” value ([2]; Dose 100000 nM)?
Its value is 1.0743.

What about the Fraction bound ([2]; Dose 100000 nM) of the same compound?
The Fraction bound was 1.0331 and 1.0480 and 1.1418.

And the IC50 ([3]; Homo sapiens, WI26VA4, read-out: IC50, collagen level)?
Its IC50 is 15.4 nM.

What about the “Collagen level, average” value ([3]; WI-26 VA4 Flag-PARS1 FA/EA/RL, 0.3 nM, average of 4 experiments) of the same compound?
Its value is 101.54 % of control.
